Reference: PubChem BioAssay (NCI)
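Protocol summary: plate cells (96-well), add compound at 5 concentrations, incubate 48 h, interpolate endpoints linearly. GI50 = concentration required for 50% inhibition of growth. TGI: concentration producing complete growth inhibition.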

Columns and labels:
Assay in all cases: NCI-60 cell line screen, 48 h
[1] = tested on: 786-0 renal
[2] = tested on: COLO 205 colon
[3] = tested on: DMS 114 small cell lung
[4] = tested on: LXFL 529 NSCLC
[5] = tested on: MALME-3M melanoma
[6] = tested on: NCI-H460 lung
[7] = tested on: SK-MEL-5 melanoma
[8] = tested on: SK-OV-3 ovarian
[9] = tested on: SNB-75 CNS
[10] = tested on: SNB-78 CNS
[11] = tested on: MCF7 breast

Structure (SMILES) | TGI [1] [µM] | TGI [2] [µM] | TGI [3] [µM] | TGI [4] [µM] | TGI [5] [µM] | TGI [6] [µM] | TGI [7] [µM] | TGI [8] [µM] | TGI [9] [µM] | TGI [10] [µM] | GI50 [1] [µM] | GI50 [2] [µM] | GI50 [11] [µM] | TGI [11] [µM] | GI50 [6] [µM] | GI50 [7] [µM] | GI50 [8] [µM] | GI50 [9] [µM] | GI50 [5] [µM]
CCOC(=O)C1SC(=Nc2ccc(C)c(C)c2)N=C1C (configuration not stated) | > 100 | > 100 | > 100 | > 100 | > 100 | > 100 | > 100 | > 100 | > 100 |  |  |  |  |  |  |  |  |  | 
CCOC(=O)N[C@@H]1C(CC(=O)OC)O[C@H]2OC(C)(C)O[C@H]21 (some centres not stated) | > 100 | > 100 | > 100 | > 100 | > 100 | > 100 | > 100 | > 100 | > 100 | > 100 |  |  |  |  |  |  |  |  | 
COc1ccc(CN2CC(C)(C)C2=O)c(OC)c1 | > 100 | > 100 | > 100 |  | > 100 | > 100 | > 100 | > 100 | > 100 | > 100 |  |  |  |  |  |  |  |  | 
Clc1cc(Cl)c2ns[s+]c2c1Cl | > 100 | > 100 |  | > 100 | > 100 | > 100 | > 100 | > 100 | > 100 | 14.8 |  |  |  |  |  |  |  |  | 
CCOC(=O)/C(C)=C(/O)C(=O)OCC | > 100 | > 100 | > 100 | > 100 | > 100 | > 100 | > 100 | > 100 | > 100 | > 100 |  |  |  |  |  |  |  |  | 
COc1cc2[nH]c3c(c2cc1OC)CCN[C@]31CC[C@]2(CC3c4c(cc(OC)c(O)c42)CCN3C)C[C@H]1OC (some centres not stated) | 32.6 | 27.3 | 31.4 | 61 | 36.3 | 63.5 | 30.6 | 59.1 | 45.5 | 60.4 |  |  |  |  |  |  |  |  | 
COc1cc(/C=C/c2ccc(OC)c(O)c2)cc(OC)c1 | 32.7 | 59.3 | 17.9 | 39.3 | 38 | 14.1 | 14.4 | 86.6 |  | 44.4 |  |  |  |  |  |  |  |  | 
[N-]=[N+]=C1C(=O)NN=C1c1ccccc1 | > 100 | > 100 | > 100 | > 100 | > 100 | > 100 |  | > 100 | > 100 |  |  |  |  |  |  |  |  |  | 
CC1=CC(C)(C)N=C2SC(c3ccc(N)cc3)=NN12 | > 100 | > 61.2 | > 100 | > 77.6 | > 100 | > 100 | > 100 | > 100 | > 100 | > 100 |  |  |  |  |  |  |  |  | 
CC1=[N+]([O-])c2ccccc2C(=O)C1=O | > 100 | > 100 | > 100 | > 100 | > 100 | > 100 | > 100 | > 100 | > 100 | > 100 |  |  |  |  |  |  |  |  | 
COC(=O)C12CC3CC(CC(C(=O)O)(C3)C1)C2 | > 100 |  |  | > 100 |  | > 100 | > 100 | > 100 | > 100 | > 100 |  |  |  |  |  |  |  |  | 
O=C(CCc1nc(=S)[nH][nH]1)Nc1ccccc1Cl | > 100 | > 100 | > 100 | > 100 | > 100 | > 100 | > 100 | > 100 | > 100 | > 100 |  |  |  |  |  |  |  |  | 
CCCC1=C(CC)C(C(=O)Nc2c(C)cccc2C)=NC(S)N1 (configuration not stated) | > 100 | > 100 | > 100 | > 100 | > 100 | > 100 | > 100 |  | > 100 | > 100 |  |  |  |  |  |  |  |  | 
CNC(=S)/N=C(\N)N(C)C | > 100 | > 100 | > 100 | > 100 | > 100 | > 100 | > 100 | > 100 | > 100 | > 100 |  |  |  |  |  |  |  |  | 
O=C(c1cccc2ccccc12)N1CCC(C2CCN(C(=O)c3cccc4ccccc34)CC2)CC1 | > 100 | > 100 | > 100 | > 100 | > 100 | > 100 | > 100 | > 100 | 65.7 | > 100 |  |  |  |  |  |  |  |  | 
c1ccc(C2N3CCCCC3[C@@H]3c4[nH]c5ccccc5c4CCN23)nc1 (some centres not stated) | > 100 |  | 96.3 | > 100 |  | > 100 | > 100 | > 100 | > 100 | > 100 |  |  |  |  |  |  |  |  | 
Cc1ccc(NC(=O)c2cccc(C(C)(C)C#N)c2)cc1Nc1ccc2ncn(C)c(=O)c2c1 | > 100 | 92.2 |  |  | 0.0434 | > 100 | 20 | > 100 | > 100 |  | 11.6 | 0.0257 | 4.4 | > 100 | 2.76 | 1.26 | > 100 | 12.7 | 
CCOC(=O)C1CCN(S(=O)(=O)/N=C2/NC(=O)NC2=C(Cl)Cl)CC1 | 6.64 | 3.83 |  |  | 3.48 | 11.4 | 4.26 | 21.7 | 14.1 |  | 0.545 | 2.08 | 0.33 | 22 | 3.19 | 1.98 | 9.94 | 2.86 | 1.7
CN(C)CCNc1ccc(CO)c2oc3ccc(O)cc3c(=O)c12 | 46.1 | 21.6 |  |  | 26.6 | 17.4 | 27.9 | 37.4 | 47.1 |  |  |  |  | 58.1 |  |  |  |  | 
Nc1ccccc1/C(O)=C1/CCOC1=O | > 100 | > 100 | > 100 | > 100 | > 100 | > 100 |  | > 100 | > 100 | > 100 |  |  |  |  |  |  |  |  | 
COc1ccc2[nH]c3c4[nH]c5ccc(OC)cc5c4c4c(c3c2c1)C(=O)NC4=O | > 25 | > 25 |  |  | > 25 | > 25 | > 25 | > 25 | > 25 |  | > 12.9 | > 25 | > 25 | > 25 | > 10.3 | > 22 | > 25 | > 13.2 | 12.4
